This note sets out measurements from patent publication US8871787B2, “Stable crystalline salt of (R)-3-fluorophenyl-3,4,5-trifluorobenzylcarbamic acid 1-azabicyclo [2.2.2]oct-3-yl ester” (Laboratorios Salvat, S.A., priority 2007, dated 2014).

Data set [1] deals with healthy postmenopausal females. Nature of the data set: Phase I clinical trial: tolerability and preliminary efficacy, voiding diary. Format: in vivo, human. Here is the method:
A clinical trial was performed to evaluate the tolerability and preliminary efficacy of tarafenacin tartrate in healthy postmenopausal females.
Twelve subjects from 50 to 70 years old were randomized to receive tarafenacin tartrate 0.125 mg, 0.4 mg or placebo o.d. for 17 days. Subjects filled a diary to record time and volume of each void. A descriptive analysis was performed.

Data set [2] has as its system patients suffering from Overactive Bladder syndrome. Nature of the data set: Phase II clinical trial: pharmacodynamics in overactive bladder patients (urodynamic assessments, tolerability). To be noted: 4 weeks. The procedure: A pharmacodynamic study of tarafenacin tartrate in patients suffering from Overactive Bladder syndrome was performed to obtain first efficacy and tolerability data in this population.
The study was randomised, double-blind, placebo and active-controlled. Patients received tarafenacin tartrate at the dose of 0.1 or 0.2 mg, tolterodine 4 mg or placebo o.d. during 4 weeks, just after a 2 week single-blind wash-out period in which all patients received placebo. Urodynamic assessments were performed at baseline and after 4 weeks administration.
It was planned to screen approximately 100 patients and randomize 77 patients, to obtain outcome data on 63 patients. Patients who entered the study were randomized into the four treatment groups during the double blind treatment period.
After a Screening visit and a 14 day washout single blind period (placebo run in), patients were randomized to one of the four treatment arms by a 2:2:2:1 randomization schedule. In a single blind period, only the patients were blinded. During the treatment period, each patient received tarafenacin tartrate 0.1 mg/tarafenacin tartrate 0.2 mg/tolterodine (ER) 4 mg/placebo. Identical capsules were used to maintain the study blind.
The end of study procedures were performed at the Day 28 visit (End of Treatment [EOT]). A study follow up was conducted at Day 35 either telephonically or the patient was called to the clinic (End of Study [EOS]).
The primary endpoint was the pharmacodynamic endpoints and they were assessed as the mean change from baseline to Day 28 in urodynamic, salivary flow, and accommodation near point pharmacodynamic assessments.

Setting [3] is: 0.1 mg o.d., change from baseline to Day 28.

Consider `O=C(O)C(O)C(O)C(=O)O.O=C(O[C@H]1CN2CCC1CC2)N(Cc1cc(F)c(F)c(F)c1)c1cccc(F)c1` [D-tartrate salt, D-tartrate salt of (R)-3-fluorophenyl-3,4,5-trifluorobenzylcarbamic acid 1-azabicyclo[2.2.2]oct-3-yl ester], for which the “effect on the volume of urine per void (in words)” value in data set [1] (0.125 mg and 0.4 mg o.d. for 17 days) is “A dose-relationship was observed”. Besides, the “number of voids per day” value was 7.6 times per day in data set [1] (0.125 mg group, day 0); 6.8 times per day in data set [1] (0.125 mg group, day 17); 8 times per day in data set [1] (0.4 mg group, day 0); 6.4 times per day in data set [1] (0.4 mg group, day 17). The same compound registered a volume per void in data set [1] (0.125 mg o.d., from day 10 until day 17 (steady state)) of 450 to 550 mL. The “mean volumes per void” value in data set [1] (0.4 mg o.d., from day 2 until the end of the study) fell in the range of 550 to 650 mL. Further, the “incidence of treatment emergent adverse events” value was found to be 25% in data set [2] (0.1 mg o.d.) and 33% in data set [2] (0.2 mg o.d.). In addition, the “increase in infused volume” value in data set [2] (setting [3]) worked out at 73 mL. For the same compound, in data set [2] (setting [3]), the “increase in volume at first desire to void” value is listed as 60 mL. Also, in data set [2] (setting [3]), the “increase in volume at strong desire to void” value amounted to 71 mL. Further, the “dose-response relationship (in words)” value in data set [2] (0.1 mg versus 0.2 mg o.d.) was “no dose-response relationship”. In data set [2] (OAB patients), the “tolerability (in words)” value is reported as “well tolerated”. The “pharmacological activity (in words)” value is “good pharmacological activity” in data set [2] (OAB patients, listed as Tarafenacin tartrate) and “higher pharmacological activity” in data set [2] (OAB patients, listed as tarafenacin tartrate).
